Source: publication PMC10962963 (Proceedings of the National Academy of Sciences of the …, 2024)
One block for each molecule: values may come before it.

Experiments:
[1] = molecular target: T1, polycystin-2 (PC2, TRPP2), PC2_F604P (Homo sapiens, UniProt Q13563, F604P); test: cryo-EM structure; assay type: cell-based
T1 sequence (Q13563 185-719 F604P): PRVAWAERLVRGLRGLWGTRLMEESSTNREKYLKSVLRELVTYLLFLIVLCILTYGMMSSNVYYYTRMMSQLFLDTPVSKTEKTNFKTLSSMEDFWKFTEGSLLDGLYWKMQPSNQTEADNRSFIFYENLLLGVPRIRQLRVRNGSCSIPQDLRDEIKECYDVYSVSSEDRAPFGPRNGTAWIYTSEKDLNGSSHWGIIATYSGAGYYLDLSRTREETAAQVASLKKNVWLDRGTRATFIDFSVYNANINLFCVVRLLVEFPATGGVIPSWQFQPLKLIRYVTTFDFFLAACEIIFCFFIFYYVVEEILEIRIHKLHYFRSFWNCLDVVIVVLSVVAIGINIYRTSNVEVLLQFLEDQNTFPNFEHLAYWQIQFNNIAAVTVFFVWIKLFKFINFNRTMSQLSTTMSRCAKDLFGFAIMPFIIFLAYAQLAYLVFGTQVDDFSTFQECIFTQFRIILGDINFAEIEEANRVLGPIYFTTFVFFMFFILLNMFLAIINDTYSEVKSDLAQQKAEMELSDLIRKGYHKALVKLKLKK

cryo-EM structure = molecular target: the molecule itself; test: cryo-EM structure

EC50 [1]: 5.2 µM
Molecule: CC1CC(C)(C)N(C(=O)CN2C(=O)c3ccccc3C2=O)c2ccccc21 (centres unmarked) [ML-SA1]

B1: truncated PC2_F604P protein containing the fragment Pro185-Lys719 (domain or fragment, human, UniProt Q13563 185-719, looked up)
chain: T1 sequence (Q13563 185-719 F604P)
binding result (cryo-EM structure): binds
